Measurements from patent US8546381B2, “Bridged heterocyclic compounds and methods of use” (Medivation Technologies, Inc., priority 2008, dated 2013).

Experiments:
[1] = target: T1, human recombinant adrenergic α2B receptor (Homo sapiens, UniProt P18089); test: Adrenergic α2B radioligand binding ([3H]Rauwolscine); conditions: 1 μM; read-out: Adrenergic α2B, inhibition of ligand binding (1 μM)
T1 construct: expressed in transfected cells; host or cells: CHO-K1 cells
T1 sequence (P18089 1-450): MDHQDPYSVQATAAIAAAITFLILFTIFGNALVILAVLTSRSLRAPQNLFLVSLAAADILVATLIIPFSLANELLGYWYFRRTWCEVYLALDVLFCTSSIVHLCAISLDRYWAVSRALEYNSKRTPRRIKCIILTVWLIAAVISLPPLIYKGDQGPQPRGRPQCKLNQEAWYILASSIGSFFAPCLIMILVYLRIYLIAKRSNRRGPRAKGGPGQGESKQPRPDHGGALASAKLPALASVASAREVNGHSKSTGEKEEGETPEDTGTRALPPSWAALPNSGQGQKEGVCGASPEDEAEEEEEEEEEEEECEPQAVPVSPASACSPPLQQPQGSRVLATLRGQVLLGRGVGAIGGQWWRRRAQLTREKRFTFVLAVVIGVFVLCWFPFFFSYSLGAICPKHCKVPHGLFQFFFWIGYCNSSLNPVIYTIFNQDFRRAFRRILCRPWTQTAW
Protocol: To evaluate in radioligand binding assays the activity of compounds of the invention, human recombinant adrenergic α2B receptor expressed in Chinese hamster ovary (CHO-K1) cells (Uhlen S et al. Eur J. Pharmacol. 343(1):93, 1998) in a modified Tris-HCl buffer (50 mM Tris-HCl, pH 7.4, 12.5 mM MgCl2, 1 mM EDTA, 0.2% BSA) was used. Compounds of the invention were incubated with 2.5 nM [^3H]Rauwolscine for 60 minutes at 25° C. Non-specific binding was estimated in the presence of 10 μM Prozosin. Receptor proteins were filtered and washed, the filters were then counted to determine [^3H]Rauwolscine specifically bound. Compounds were screened at 1 μM or lower, using 1% DMSO as vehicle. Biochemical assay results are presented as the percent inhibition of specific binding in Table 3.

[2] = target: T2, human recombinant dopamine D2L receptor (Homo sapiens, UniProt P14416); test: Dopamine D2L radioligand binding ([3H]Spiperone); conditions: read-out: Dopamine (1 μM) D2L, inhibition of ligand binding
T2 construct: expressed in transfected cells; host or cells: CHO cells
T2 sequence (P14416 whole entry): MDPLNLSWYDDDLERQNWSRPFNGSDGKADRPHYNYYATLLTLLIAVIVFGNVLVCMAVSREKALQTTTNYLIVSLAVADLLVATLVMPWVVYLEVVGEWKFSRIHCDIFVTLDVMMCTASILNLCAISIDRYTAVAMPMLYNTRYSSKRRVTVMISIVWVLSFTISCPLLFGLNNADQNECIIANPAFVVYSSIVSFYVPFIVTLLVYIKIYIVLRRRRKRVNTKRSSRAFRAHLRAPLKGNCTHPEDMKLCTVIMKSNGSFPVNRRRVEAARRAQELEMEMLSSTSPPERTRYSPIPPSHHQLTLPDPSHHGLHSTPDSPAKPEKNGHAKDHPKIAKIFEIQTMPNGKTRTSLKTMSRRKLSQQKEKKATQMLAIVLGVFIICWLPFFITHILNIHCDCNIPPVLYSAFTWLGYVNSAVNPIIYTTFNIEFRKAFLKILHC
Protocol: To evaluate in radioligand binding assays the activity of compounds of the invention, human recombinant dopamine D2L receptor expressed in Chinese hamster ovary (CHO) cells (Grandy, D. K. et al. Proc. Natl. Acad. Sci. USA. 86:9762, 1989; Hayes, G. et al., Mol. Endocrinol. 6:920, 1992) in a modified Tris-HCl buffer (50 mM Tris-HCl, pH 7.4, 1.4 mM Ascorbic Acid, 0.001% BSA, 150 mM NaCl) was used. Compounds of the invention were incubated with 0.16 nM [^3H]Spiperone for 120 minutes at 25° C. Non-specific binding was estimated in the presence of 10 μM Haloperidol. Receptor proteins were filtered and washed, the filters were then counted to determine [^3H]Spiperone specifically bound. Compounds were screened at 1 μM or lower, using 1% DMSO as vehicle. Biochemical assay results are presented as the percent inhibition of specific binding in Table 3.

[3] = target: T3, human recombinant serotonin (5-Hydroxytryptamine) 5-HT2C receptor (Homo sapiens, UniProt P28335); test: Serotonin 5-HT2C radioligand binding ([3H]Mesulergine); conditions: read-out: Serotonin 5-HT2C, inhibition of ligand binding (1 μM)
T3 construct: expressed in transfected cells; host or cells: CHO-K1 cells
T3 sequence (P28335 33-458): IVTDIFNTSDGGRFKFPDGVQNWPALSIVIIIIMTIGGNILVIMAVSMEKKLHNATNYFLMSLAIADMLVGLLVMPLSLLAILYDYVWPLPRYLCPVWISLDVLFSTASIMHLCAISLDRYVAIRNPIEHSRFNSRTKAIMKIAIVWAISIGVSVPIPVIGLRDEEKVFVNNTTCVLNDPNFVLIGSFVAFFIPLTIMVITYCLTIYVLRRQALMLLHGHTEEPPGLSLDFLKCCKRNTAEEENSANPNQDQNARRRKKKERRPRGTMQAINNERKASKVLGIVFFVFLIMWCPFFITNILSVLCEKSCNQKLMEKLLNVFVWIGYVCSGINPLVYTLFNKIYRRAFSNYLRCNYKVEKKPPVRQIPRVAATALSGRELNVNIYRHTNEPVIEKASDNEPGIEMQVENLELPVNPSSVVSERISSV
Protocol: To evaluate in radioligand binding assays the activity of compounds of the invention, human recombinant serotonin (5-Hydroxytryptamine) 5-HT2C receptor expressed in Chinese hamster ovary (CHO-K1) cells (Wolf, W. A. and Schutz, J. S., J. Neurochem. 69:1449, 1997) in a modified Tris-HCl buffer (50 mM Tris-HCl, pH 7.4, 0.1% Ascorbic Acid, 10 μM Pargyline) was used. Compounds of the invention were incubated with 1 nM [^3H]Mesulergine for 60 minutes at 25° C. Non-specific binding was estimated in the presence of 1 μM Mianserin. Receptor proteins were filtered and washed, the filters were then counted to determine [^3H]Mesulergine specifically bound. Compounds were screened at 1 μM or lower, using 1% DMSO as vehicle. Biochemical assay results are presented as the percent inhibition of specific binding in Table 4.

[4] = target: T4, human recombinant histamine H2 receptor (Homo sapiens, UniProt P25021); test: Histamine H2 radioligand binding ([125I]Aminopotentidine); conditions: compound at 1 μM; inhibition of specific [125I]Aminopotentidine binding; read-out: Histamine Binding (1 μM) H2, Percentage Inhibition
T4 construct: expressed in transfected cells; host or cells: CHO-K1 cells
T4 sequence (P25021 whole entry): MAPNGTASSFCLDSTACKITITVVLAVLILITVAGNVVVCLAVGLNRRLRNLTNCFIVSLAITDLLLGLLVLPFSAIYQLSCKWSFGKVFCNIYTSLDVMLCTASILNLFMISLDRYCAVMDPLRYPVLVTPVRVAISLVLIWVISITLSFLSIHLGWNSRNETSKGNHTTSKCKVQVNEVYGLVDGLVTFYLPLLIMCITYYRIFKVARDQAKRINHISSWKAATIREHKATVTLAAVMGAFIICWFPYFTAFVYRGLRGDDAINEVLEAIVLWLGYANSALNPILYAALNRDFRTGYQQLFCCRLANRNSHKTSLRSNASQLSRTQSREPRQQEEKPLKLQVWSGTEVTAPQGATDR
Protocol: To evaluate in radioligand binding assays the activity of compounds of the invention, human recombinant histamine H2 receptor expressed in Chinese hamster ovary (CHO) K1 cells (Ruat, M., Proc. Natl. Acad. Sci. USA. 87(5):1658, 1990) in a 50 mM Phosphate buffer, pH 7.4 was used. Compounds of the invention were incubated with 0.1 nM [^125I]Aminopotentidine for 120 minutes at 25° C. Non-specific binding was estimated in the presence of 3 μM Tiotidine. Receptor proteins were filtered and washed, the filters were then counted to determine [^125I]Aminopotentidine specifically bound. Compounds were screened at 1 μM or lower, using 1% DMSO as vehicle. Biochemical assay results are presented as the percent inhibition of specific binding in Table 2.

Structure (SMILES)	inhibition at 1 µM [1] [%]	inhibition at 1 µM [2] [%]	inhibition at 1 µM [3] [%]	inhibition at 1 µM [4] [%]
CCOC(=O)CCn1c2c(c3cc(Cl)ccc31)C1CCC(C2)N1C (centres unmarked) [Compound 70, ethyl 3-(2-chloro-11-methyl-5,6,7,8,9,10-hexahydro-7,10-iminocyclohept[b]indol-5-yl)propanoate]	51	-3	4	7
CN1C2CCC1c1c(n(CCC(=O)O)c3ccc(Cl)cc13)C2 (centres unmarked) [Compound 72]	-8	3	-4	7
CN1C2CCC1c1c(n(CCC(N)=O)c3ccc(Cl)cc13)C2 (centres unmarked) [Compound 73]	73	-4	5	-1
CN1C2CCC1c1c(n(CCc3ccc(C(F)(F)F)nc3)c3cc(F)c(Cl)cc13)C2 (centres unmarked) [Compound 77]	75	4	-8	7
Cc1ccc(CCn2c3c(c4cc(Cl)ccc42)C2CCC(C3)N2C)cn1 (centres unmarked) [Compound 79]	87	9	13	1
CN1C2CCC1c1c(n(CCc3cccnc3)c3ccc(Cl)cc13)C2 (centres unmarked) [Compound 80]	95	-3	16	-3
Cc1ccc2c(c1)c1c(n2CCc2cnc(C)nc2)CC2CCC1N2C (centres unmarked) [Compound 81]	40	9	25	-9
Cc1ncc(CCn2c3c(c4cc(Cl)ccc42)C2CCC(C3)N2C)cn1 (centres unmarked) [Compound 82]	47	2	60	-8
COc1ccc(CCn2c3c(c4cc(C)ccc42)C2CCC(C3)N2C)cc1 (centres unmarked) [Compound 83]	94	12	82	15
COc1ccc(CCn2c3c(c4cc(Cl)ccc42)C2CCC(C3)N2C)cc1 (centres unmarked) [Compound 84]	98	-6	93	63
Cc1ccc2c(c1)c1c(n2CCCc2ccc(Cl)cc2)CC2CCC1N2C (centres unmarked) [Compound 85]	92	-2	89	81
Cc1ccc2c(c1)c1c(n2CCc2cccnc2)CC2CCC1N2C (centres unmarked) [Compound 86]	106	4	72	26
CN1C2CCC1c1c(n(CCc3cncc(Cl)c3)c3ccc(Cl)cc13)C2 (centres unmarked) [Compound 87]	98	-6	30	7
Cc1ccc2c(c1)c1c(n2CCc2cncc(Cl)c2)CC2CCC1N2C (centres unmarked) [Compound 88]	104	4	31	5
Cc1cncc(CCn2c3c(c4cc(Cl)ccc42)C2CCC(C3)N2C)c1 (centres unmarked) [Compound 89]	76	9	26	-1
Cc1cncc(CCn2c3c(c4cc(C)ccc42)C2CCC(C3)N2C)c1 (centres unmarked) [Compound 90]	75	-4	27	-1
Cc1ccc2c(c1)c1c(n2CC(O)c2ccc(C)nc2)CC2CCC1N2C (centres unmarked) [Compound 91]	67	-5	-4	9
Cc1ccc(CCn2c3c(c4ccccc42)C2CCC(C3)N2C)cn1 (centres unmarked) [Compound 92]	34	0	9	11
Cc1ccc2c(c1)c1c(n2CC(=O)N2CCCCC2)CC2CCC1N2C (centres unmarked) [Compound 93]	-6	-19	7	-5
CN1[C@@H]2CC[C@H]1c1c(n(CCc3ccc(F)cc3)c3ccc(F)cc13)C2 [Compound 94, (+)-(7S,10R)-2-Fluoro-5-(4-fluorophenethyl)-11-methyl-5,6,7,8,9,10-hexahydro-7,10-iminocyclohept[b]indole]	102	14	75	4
CN1[C@H]2CC[C@@H]1c1c(n(CCc3ccc(F)cc3)c3ccc(F)cc13)C2 [Compound 95, (−)-(7R,10S)-2-Fluoro-5-(4-fluorophenethyl)-11-methyl-5,6,7,8,9,10-hexahydro-7,10-iminocyclohept[b]indole]	36	50	55	8
CN1[C@@H]2CC[C@H]1c1c(n(CCc3ccc(C(F)(F)F)nc3)c3ccccc13)C2 [Compound 97]	103	-10	97	11
CN1[C@@H]2CC[C@H]1c1c(n(CC(C)(O)c3ccc(F)cc3)c3ccccc13)C2 (some centres unmarked) [Compound 99]	92	-6	75	6
CN1[C@@H]2CC[C@H]1c1c(n(CC(=O)N3CCCCC3)c3ccccc13)C2 [Compound 101]	76	10	94	19
Cc1ccc(CCn2c3c(c4ccccc42)[C@@H]2CC[C@H](C3)N2C)cn1 [Compound 102]	42	-1	-6	3
Cc1ccc2c(c1)c1c(n2CCC#N)CC2CCC1N2C (centres unmarked) [Compound 103]	94	4	33	1
